One assay deals with HCV Genotype 1A Replicon. Kind of assay: Replicon assay, genotype 1a subgenomic replicon, luciferase readout. It counts as cell-based. To be noted: Hepatitis C virus, 48 h, Table 3; luciferase activity after 48 hours. The method, then: (§1) Compounds were assayed for activity against HCV using the genotype 1a and 1b subgenomic replicon model systems. Stable cell lines bearing the genotype 1a and 1b replicons were used for screening of compounds. Both replicons are bicistonic and contain the firefly luciferase gene. The ET cell line is stably transfected with RNA transcripts harboring a I389luc-ubi-neo/NS3-3′/ET replicon with firefly luciferase-ubiquitin-neomycin phosphotransferase fusion protein and EMCV-IRES driven NS3-5B polyprotein containing the cell culture adaptive mutations (E1202G; T12801; K1846T) (Krieger at al, 2001 and unpublished). The genotype 1a replicon is a stable cell line licensed from Apath LLC, modified to contain the firefly luciferase gene. The cells were grown in DMEM, supplemented with 10% fetal calf serum, 2 mM Glutamine, Penicillin (100 IU/mL)/Streptomycin (100 μg/mL), 1× nonessential amino acids, and 250-500 μg/mL G418 (“Geneticin”). They were all available through Life Technologies (Bethesda, Md.). The cells were plated at 0.5×10^4 cells/well in 384 well plates containing compounds. The final concentration of compounds ranged between 0.03 μM to 50 μm and the final DMSO concentration of 0.5-1%.
(§2) Luciferase activity was measured 48 hours later by adding a Steady glo (Promega, Madison, Wis.). Percent inhibition of replication data was plotted relative to no compound control. Under the same condition, cytotoxicity of the compounds was determined using cell titer glo (Promega, Madison, Wis). IC50s were determined from a 10 point dose response curve using 3-4-fold serial dilution for each compound, which spans a concentration range >1000 fold. BioAssay determines the level of inhibition for each compound by normalizing cross-talk corrected plate values against the negative […] controls to determine Percent Inhibition:
(§3) These normalized values are exported to EC50 where they are plotted against the molar compound concentrations using the standard four parameter logistic equation: […]
(§4) Some EC50 measurements were repeated a second time and for both 1A and 1B genotypes after those reported in Table 2 for compounds 101-108 and the repeated data was reported in Table 3.

The subject of another assay is HCV Genotype 1B Replicon. Kind of assay: Replicon assay, genotype 1b subgenomic replicon (ET cell line), luciferase readout. Conditions: Hepatitis C virus, 48 h, Table 3; luciferase activity after 48 hours. It counts as cell-based. The method, then:
as §1, §2, §3, §4
For orientation: In antiviral work, replicon cells carry a viral genome segment that copies itself.

By EC50 is commonly meant the concentration at which the effect is half-maximal. A lower EC50 goes with an effect from little substance.

Each structure is given as a SMILES string.

For `Cc1ccc(-c2cc(C(F)(F)F)c3nc(C(=O)N4CCC(N5CCOC5=O)CC4)c(Cl)n3c2)o1` [Compound 133], the EC50 with HCV Genotype 1A Replicon turned out to be 110 nM; in the assay on HCV Genotype 1B Replicon it was 3720 nM.
Turning to `O=C(c1nc2c(C(F)(F)F)cc(C3CCCO3)cn2c1Cl)N1CCC(N2CCOC2=O)CC1` (stereo not shown) [Compound 134, 3-(1-{[3-chloro-6-(tetrahydro-2-furanyl)-8-(trifluoromethyl)imidazo[1,2-a]pyridin-2-yl]carbonyl}-4-piperidinyl)-1,3-oxazolidin-2-one], the EC50 in the assay with HCV Genotype 1A Replicon turned out to be 320 nM; in the assay on HCV Genotype 1B Replicon, 2190 nM.
The like results for `CCOc1cc(C(F)(F)F)c2nc(C(=O)N3CCC(N4CCOC4=O)CC3)c(Cl)n2c1` [Compound 135, 3-(1-{[3-chloro-6-(ethyloxy)-8-(trifluoromethyl)imidazo[1,2-a]pyridin-2-yl]carbonyl}-4-piperidinyl)-1,3-oxazolidin-2-one] were, in that order, 70 nM and 220 nM.
`O=C(c1nc2c(C(F)(F)F)cc(-c3cccnc3)cn2c1Cl)N1CCC(N2CCOC2=O)CC1` [Compound 136, 3-(1-{[3-chloro-6-(3-pyridinyl)-8-(trifluoromethyl)imidazo[1,2-a]pyridin-2-yl]carbonyl}-4-piperidinyl)-1,3-oxazolidin-2-one]: the half-maximal effective concentration (EC50) was 320 nM in the assay with HCV Genotype 1A Replicon and 1840 nM in the assay on HCV Genotype 1B Replicon.
For the compound `O=C(c1nc2c(C(F)(F)F)cc(C3CCOC3)cn2c1Cl)N1CCC(N2CCOC2=O)CC1` (stereo not shown) [Compound 137, 3-(1-{[3-chloro-6-(tetrahydro-3-furanyl)-8-(trifluoromethyl)imidazo[1,2-a]pyridin-2-yl]carbonyl}-4-piperidinyl)-1,3-oxazolidin-2-one], the figures for the concentration giving a half-maximal response (EC50) with HCV Genotype 1A Replicon and in the assay with HCV Genotype 1B Replicon were 310 nM and 1270 nM, respectively.
With `CC(C)Oc1cc(C(F)(F)F)c2nc(C(=O)N3CCC(N4CCOC4=O)CC3)c(Cl)n2c1` [Compound 138, 3-(1-{[3-chloro-6-[(1-methylethyl)oxy]-8-(trifluoromethyl)imidazo[1,2-a]pyridin-2-yl]carbonyl}-4-piperidinyl)-1,3-oxazolidin-2-one], the figures for the EC50 with HCV Genotype 1A Replicon and in the assay on HCV Genotype 1B Replicon were 280 nM and 420 nM, respectively.
Consider `O=C(c1nc2c(C(F)(F)F)cc(-n3ccnc3)cn2c1Cl)N1CCC(N2CCOC2=O)CC1` [Compound 139, 3-(1-{[3-chloro-6-(1H-imidazol-1-yl)-8-(trifluoromethyl)imidazo[1,2-a]pyridin-2-yl]carbonyl}-4-piperidinyl)-1,3-oxazolidin-2-one], for which the EC50 is 2660 nM in the assay with HCV Genotype 1A Replicon and at least 5010 nM with HCV Genotype 1B Replicon.
As for `CC(C)Cc1cc(C(F)(F)F)c2nc(C(=O)N3CCC(N4C(=O)COC4=O)CC3)c(Cl)n2c1` [Compound 140, 3-(1-{[3-chloro-6-(2-methylpropyl)-8-(trifluoromethyl)imidazo[1,2-a]pyridin-2-yl]carbonyl}-4-piperidinyl)-1,3-oxazolidine-2,4-dione], the concentration for a half-maximal effect (EC50) turned out to be 50 nM in the assay on HCV Genotype 1A Replicon and 150 nM in the assay with HCV Genotype 1B Replicon.
For the compound `CCC(C)c1cc(C(F)(F)F)c2nc(C(=O)N3CCC(N4CCOC4=O)CC3)c(Cl)n2c1` (stereo not shown) [Compound 141, 3-(1-{[3-chloro-6-(1-methylpropyl)-8-(trifluoromethyl)imidazo[1,2-a]pyridin-2-yl]carbonyl}-4-piperidinyl)-1,3-oxazolidin-2-one], the results for the EC50 in the assay on HCV Genotype 1A Replicon and in the assay on HCV Genotype 1B Replicon were 160 nM and 550 nM, respectively.
As for `O=C(c1nc2c(C(F)(F)F)cc(Br)cn2c1Cl)N1CCC(N2C(=O)COC2=O)CC1` [Compound 142, 3-(1-{[6-bromo-3-chloro-8-(trifluoromethyl)imidazo[1,2-a]pyridin-2-yl]carbonyl}-4-piperidinyl)-1,3-oxazolidine-2,4-dione], the half-maximal effective concentration (EC50) in the assay with HCV Genotype 1A Replicon and in the assay with HCV Genotype 1B Replicon was 70 nM in each case.
Turning to `O=C(c1nc2c(C(F)(F)F)cc(Br)cn2c1Cl)N1CCC(N2CCCC2=O)CC1` [Compound 143, 1-(1-{[6-bromo-3-chloro-8-(trifluoromethyl)imidazo[1,2-a]pyridin-2-yl]carbonyl}-4-piperidinyl)-2-pyrrolidinone], the values for the EC50 in the assay on HCV Genotype 1A Replicon and in the assay with HCV Genotype 1B Replicon were 480 nM and 200 nM, respectively.
In the case of `O=C(c1nc2c(C(F)(F)F)cc(OC(F)F)cn2c1Cl)N1CCC(N2CCOC2=O)CC1` [Compound 144, 3-(1-{[3-chloro-6-[(difluoromethyl)oxy]-8-(trifluoromethyl)imidazo[1,2-a]pyridin-2-yl]carbonyl}-4-piperidinyl)-1,3-oxazolidin-2-one], the results for the EC50 with HCV Genotype 1A Replicon and in the assay on HCV Genotype 1B Replicon were 20 nM and 50 nM, respectively.
On to `O=C(c1nc2c(C(F)(F)F)cc(OC(F)F)cn2c1Cl)N1CCC(N2C(=O)COC2=O)CC1` [Compound 145, 3-(1-{[3-chloro-6-[(difluoromethyl)oxy]-8-(trifluoromethyl)imidazo[1,2-a]pyridin-2-yl]carbonyl}-4-piperidinyl)-1,3-oxazolidine-2,4-dione], for which the EC50 in the assay with HCV Genotype 1A Replicon and in the assay on HCV Genotype 1B Replicon was 50 nM in each case.
On to `O=C(c1nc2c(C(F)(F)F)cc(-c3ccco3)cn2c1Cl)N1CCC(N2CCOC2=O)CC1` [Compound 146, 3-(1-{[3-chloro-6-(2-furanyl)-8-(trifluoromethyl)imidazo[1,2-a]pyridin-2-yl]carbonyl}-4-piperidinyl)-1,3-oxazolidin-2-one], for which the concentration giving a half-maximal response (EC50) was 20 nM in the assay on HCV Genotype 1A Replicon and 30 nM in the assay on HCV Genotype 1B Replicon.
Turning to `O=C(c1nc2c(C(F)(F)F)cc(-c3cc[nH]c3)cn2c1Cl)N1CCC(N2CCOC2=O)CC1` [Compound 147, 3-(1-{[3-chloro-6-(1H-pyrrol-3-yl)-8-(trifluoromethyl)imidazo[1,2-a]pyridin-2-yl]carbonyl}-4-piperidinyl)-1,3-oxazolidin-2-one], the EC50 with HCV Genotype 1A Replicon and with HCV Genotype 1B Replicon was 20 nM throughout.
With `O=C(c1nc2c(C(F)(F)F)cc(-c3cn[nH]n3)cn2c1Cl)N1CCC(N2CCOC2=O)CC1` [Compound 148, 3-(1-{[3-chloro-6-(2H-1,2,3-triazol-4-yl)-8-(trifluoromethyl)imidazo[1,2-a]pyridin-2-yl]carbonyl}-4-piperidinyl)-1,3-oxazolidin-2-one], the EC50 came out at 220 nM in the assay on HCV Genotype 1A Replicon and 540 nM with HCV Genotype 1B Replicon.
Turning to `O=C(c1nc2c(C(F)(F)F)cc(-c3ncc[nH]3)cn2c1Cl)N1CCC(N2CCOC2=O)CC1` [Compound 149, 3-(1-{[3-chloro-6-(1H-imidazol-2-yl)-8-(trifluoromethyl)imidazo[1,2-a]pyridin-2-yl]carbonyl}-4-piperidinyl)-1,3-oxazolidin-2-one], the EC50 with HCV Genotype 1A Replicon amounted to 2250 nM; in the assay on HCV Genotype 1B Replicon, 80 nM.
Turning to `O=C(c1nc2c(C(F)(F)F)cc(-c3ccc[nH]3)cn2c1Cl)N1CCC(N2CCOC2=O)CC1` [Compound 150, 3-(1-{[3-chloro-6-(1H-pyrrol-2-yl)-8-(trifluoromethyl)imidazo[1,2-a]pyridin-2-yl]carbonyl}-4-piperidinyl)-1,3-oxazolidin-2-one], the results for the EC50 in the assay with HCV Genotype 1A Replicon and in the assay on HCV Genotype 1B Replicon were 230 nM and 450 nM, respectively.
Turning to `Cc1cc(C(F)(F)F)c2nc(C(=O)N3CCC(N4CCOC4=O)CC3)c(Cl)n2c1` [Compound 151, 3-(1-{[3-chloro-6-methyl-8-(trifluoromethyl)imidazo[1,2-a]pyridin-2-yl]carbonyl}-4-piperidinyl)-1,3-oxazolidin-2-one], the EC50 with HCV Genotype 1A Replicon was determined as 650 nM; in the assay with HCV Genotype 1B Replicon, 500 nM.
For the compound `CCc1cc(C(F)(F)F)c2nc(C(=O)N3CCC(N4CCOC4=O)CC3)c(Cl)n2c1` [Compound 152, 3-(1-{[3-chloro-6-ethyl-8-(trifluoromethyl)imidazo[1,2-a]pyridin-2-yl]carbonyl}-4-piperidinyl)-1,3-oxazolidin-2-one], the EC50 is 50 nM with HCV Genotype 1A Replicon and 70 nM in the assay on HCV Genotype 1B Replicon.
In the case of `C=Cc1cc(C(F)(F)F)c2nc(C(=O)N3CCC(N4CCOC4=O)CC3)c(Cl)n2c1` [Compound 153, 3-(1-{[3-chloro-6-ethenyl-8-(trifluoromethyl)imidazo[1,2-a]pyridin-2-yl]carbonyl}-4-piperidinyl)-1,3-oxazolidin-2-one], the EC50 in the assay on HCV Genotype 1A Replicon was 80 nM; with HCV Genotype 1B Replicon, 70 nM.
For `CC(C)c1cc(C(F)(F)F)c2nc(C(=O)N3CCC(N4CCOC4=O)CC3)c(Cl)n2c1` [Compound 154, 3-(1-{[3-chloro-6-(1-methylethyl)-8-(trifluoromethyl)imidazo[1,2-a]pyridin-2-yl]carbonyl}-4-piperidinyl)-1,3-oxazolidin-2-one], the EC50 with HCV Genotype 1A Replicon and in the assay with HCV Genotype 1B Replicon was 20 nM in each case.
For `CC(O)c1cc(C(F)(F)F)c2nc(C(=O)N3CCC(N4CCOC4=O)CC3)c(Cl)n2c1` (stereo not shown) [Compound 155, 3-(1-{[3-chloro-6-(1-hydroxyethyl)-8-(trifluoromethyl)imidazo[1,2-a]pyridin-2-yl]carbonyl}-4-piperidinyl)-1,3-oxazolidin-2-one], the concentration giving a half-maximal response (EC50) in the assay with HCV Genotype 1A Replicon worked out at 630 nM; in the assay with HCV Genotype 1B Replicon, 1080 nM.
